Experimental data from patent US20200038413A1, “METHODS OF TREATING PARKINSON'S DISEASE USING AMINOSTEROL COMPOSITIONS” (Enterin, Inc., priority 2018, published 2020).

How the values were obtained:
[1] = test system: colon segments (propagating contractile clusters); assay: Ex vivo colon motility (PCCs), Swiss Webster, C57BL/6 and CD-1 mice; parameters: species or system mouse; conditions: for increase in colonic PCC velocity / colonic PCC velocity: intraluminal 10-30 μM; for colonic PCC velocity: mean±SEM
Procedure: Ex vivo colon motility: For the ex vivo colonic motility experiments, the colon was excised and placed within an organ-bath perfusion chamber filled with warmed, oxygenated Krebs buffer or physiological saline (35° C., 95% O2, 5% CO2). The colon was flushed and cannulated at the oral and anal ends to a manifold and syringe to allow inflow of oxygenated Krebs buffer (or physiological saline) or Krebs and squalamine and to maintain intraluminal pressure. The height of the inflow tube at baseline measurements was parallel to the height of the colon in the organ bath (1.1 cm). Mechanical threshold defined an inflow pressure great enough to generate a contraction in under 30 sec (1.8 cm). Recordings in the first portion of the study were measured at a mechanical threshold causing a pressure differential of 2 hPa (cm H2O). Inflow was raised 2-3 hPa above baseline and outflow was raised a minimum of 0.2 hPa above inflow. Motor patterns were recorded using a Microsoft LifeCam 3000 web camera or a Logitech Quickcam Pro camera positioned 7-8 cm above the tissue. Videos were recorded during a 20-minute Krebs control and a 20-minute Krebs +squalamine period in which solutions were added to the inflow syringe.
Spatiotemporal Maps: Video recordings were used to construct spatiotemporal maps (STmaps) using edge detection software. STmaps are presented as heat maps showing the oral to anal direction across the y-axis and time across the x-axis (FIGS. 9A-C). Color corresponds to the changing diameter of the colon during periods of relaxation (green-yellow) and contraction (red) as contractile motor patterns occurred. ENS-dependent PCCs were defined as broad bands directed from the oral to anal ends that spanned more than 50% of the colon length. Parameters of motor patterns including, velocity, amplitude, and frequency were measured using ImageJ and Matlab (Version 12) software.
Statistical Analysis: Effects of squalamine on motility and IPAN excitability in WT and PD model mice were assessed in paired experiments following Krebs control and subsequent squalamine exposure. Unpaired comparisons were performed for experiments comparing PD control and PD model strains. Percent difference was calculated by (treatment-control)/control. Data are presented as mean±SEM. Ex vivo statistical comparisons were performed using paired or unpaired, two-tailed t-tests or 1-way ANOVA using Graphpad Prism software (Version 7.0). In vivo studies were analysed using 1-way and 2-way ANOVA. Statistical significance was determined when p <0.05.

C. elegans model of PD = conditions: cited from earlier work
Solubility in water = format: physicochemical; conditions: pH<3.5 (the pH of gastric fluid)
[2] = Preclinical oral studies in dogs; format: in vivo
[3] = test system: patients with PD and constipation; assay: Phase 2 trial Stage 2: daily oral dosing, bowel function / stool related indices; format: in vivo, human
Procedure: Following successful screening, all subjects underwent a 14-day run-in period where the degree of constipation was assessed through a validated daily log (Zinsmeister et al. 2013) establishing baseline CSBMs/week. Subjects with an average of <3 CSBMs/week proceeded to dosing.
In Stage 2, 34 patients were evaluated.
The primary efficacy outcome variable was whether or not a subject was a “success” or “failure”. This is an endpoint based on subject diary entries for the “fixed dose” period prior to the endpoint assessment defined as average complete stool frequency increase by 1 or more over baseline, or 3 or more complete spontaneous stools/week. The subject was deemed a “success” if s/he met one or more of the criteria listed above, otherwise the subject was deemed a “failure”. The primary analysis was based on all subjects with a baseline assessment and an assessment at the end of the “fixed-dose” period and was a comparison of the proportion of successes with 0.10 (the null hypothesis corresponding to no treatment effect).

[4] = Phase 2 trial: pharmacokinetics of orally administered squalamine (ENT-01); format: in vivo; conditions: human, based on PK of intravenously administered squalamine in prior clinical studies
Procedure: Pharmakokinetics: PK data were collected on the 10 patients enrolled in Stage 1 and 10 patients enrolled in Stage 2 to determine the extent of systemic absorption. In Stage 1, PK data were obtained at each visit, pre-medication, at 1, 2, 4, 8 and 24 hours (Table 10). In Stage 2, PK was measured on days 1 and 6 of the randomization period pre-medication, at 1, 2, 4 and 8 hours (Table 11).
The mean Cmax, Tmax and T1/2 and AUC of the squalamine ion following squalamine (ENT-01) oral dosing for Stage 1 patients. The PK analyses are only approximate, as the lower limit of the validated concentration range was 10 ng/ml; most of the measured concentrations fell below that value. The mean Cmax, Tmax and T1/2 and AUC of the squalamine ion following squalamine (ENT-01) oral dosing for Stage 2 patients. The PK analyses are only approximate, as the lower limit of the validated concentration range was 0.5 ng/ml.

[5] = C57BL/6 mice, vs Krebs control (P=0.27)

SMILES: CC(C)[C@@H](CC[C@@H](C)[C@H]1CC[C@H]2[C@@H]3[C@H](O)C[C@H]4C[C@@H](NCCCNCCCCN)CC[C@]4(C)[C@H]3CC[C@]12C)OS(=O)(=O)O (single isomer, unassigned) [squalamine (ENT-01), squalamine]
- increase in colonic PCC velocity ([1]; C57BL/6 mice, vs Krebs control): 38%
- colonic PCC velocity ([1]; C57BL/6 mice, Krebs control 1.31±0.10): 1.80±0.20 mm/s
- increase in PCC amplitude [1, 5]: 1%
- increase in PCC frequency [1, 5]: 51%
- PCC frequency ([1]; C57BL/6 mice, Krebs control 0.007±0.001): 0.010 ±0.003 Hz
- PCC amplitude ([1]; C57BL/6 mice, Krebs control 0.66±0.06): 0.70±0.07 cm
- increase in colonic PCC velocity ([1]; CD-1 mice, vs Krebs control): 81%
- colonic PCC velocity ([1]; CD-1 mice, Krebs control 0.96±0.1): 1.74±0.1 mm/s
- increase in PCC frequency ([1]; CD-1 mice, vs Krebs control (P=0.06)): 63%
- increase in PCC amplitude ([1]; CD-1 mice, vs Krebs control (P=0.56)): 12%
- PCC frequency ([1]; CD-1 mice, Krebs control 0.0099±0.0014): 0.0162±0.0026 Hz
- PCC amplitude ([1]; CD-1 mice, Krebs control 0.64±0.19): 0.71±0.19 cm
- increase in colonic PCC velocity ([1]; Swiss Webster mice, 20 min, vs Krebs control): 45%
- colonic PCC velocity ([1]; Swiss Webster mice, Krebs control 1.14±0.10): 1.66±0.10 mm/s
- increase in PCC frequency ([1]; Swiss Webster mice, vs Krebs control): 35%
- decrease in PCC amplitude ([1]; Swiss Webster mice, vs Krebs control (P=0.65)): 3%
- PCC frequency ([1]; Swiss Webster mice, Krebs control 0.009±0.001): 0.012±0.001 Hz
- PCC amplitude ([1]; Swiss Webster mice, Krebs control 0.62±0.05): 0.61±0.05 cm
- muscle paralysis (C. elegans model of PD; C. elegans model of PD (Perni et al. 2017)): complete reversal of muscle paralysis
- formation of aggregates of αS (C. elegans model of PD; C. elegans model of PD in vivo (Perni et al. 2017)): inhibit the formation of aggregates of αS
- solubility in water (Solubility in water): readily dissolves
- tolerability [2]: well tolerated
- CSBM ([3]; Stage 2, wash-out, mean (SD), baseline 1.2 (0.90)): 1.8 (1.19)
- SBM ([3]; Stage 2, wash-out, mean (SD), baseline 2.6 (1.45)): 3.2 (1.80)
- response rate (CSBM within 24 hours on at least 2 of 3 days) ([3]; Stage 2 daily dosing, 75 mg): 26%
- decrease in use of rescue medication ([3]; fixed dose vs baseline): 83%
- improvement in SBM ([3]; fixed dose vs baseline): 73%
- improvement in consistency (Bristol stool scale) ([3]; fixed dose vs baseline): 52%
- improvement in ease of passage ([3]; fixed dose vs baseline): 16%
- oral bio-availability (estimated) [4]: less than 0.3%
